According to PubChem BioAssay AID2060903 (Molecular Pharmacology Branch, DTP, NCI, 2025):

System: 377384-186-R-J1-PDC complex spheroid viability
Assay: Anticancer human tumor 377384-186-R-J1-PDC patient-derived pancreatic carcinoma cell line growth inhibition [RAS]
Details: for IC50: curve of first compound; for viability, T/C: stronger effect = lower value
Outline: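 Agents were tested in combination matrices in half-log decrements from a top concentration at or near clinical Cmax (10 microM if undetermined). Targets were multi-cell spheroids of tumour lines plus HUVEC and MSC stromal cells.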

[1] = second compound 0.000949 µM, first compound 0.0316 µM
[2] = second compound 0.000949 µM, first compound 0.1 µM
[3] = second compound 0.000949 µM, first compound 0.316 µM
[4] = second compound 0.000949 µM, first compound 1 µM
[5] = second compound 0.003 µM, first compound 0.0316 µM
[6] = second compound 0.003 µM, first compound 0.1 µM
[7] = second compound 0.003 µM, first compound 0.316 µM
[8] = second compound 0.003 µM, first compound 1 µM
[9] = second compound 0.00949 µM, first compound 0.0316 µM
[10] = second compound 0.00949 µM, first compound 0.1 µM
[11] = second compound 0.00949 µM, first compound 0.316 µM
[12] = second compound 0.00949 µM, first compound 1 µM
[13] = second compound 0.03 µM, first compound 0.0316 µM
[14] = second compound 0.03 µM, first compound 0.1 µM
[15] = second compound 0.03 µM, first compound 0.316 µM
[16] = second compound 0.03 µM, first compound 1 µM
[17] = second compound 0.0949 µM, first compound 0.0316 µM
[18] = second compound 0.0949 µM, first compound 0.1 µM
[19] = second compound 0.0949 µM, first compound 0.316 µM
[20] = second compound 0.0949 µM, first compound 1 µM
[21] = second compound 0.3 µM, first compound 0.0316 µM
[22] = second compound 0.3 µM, first compound 0.1 µM
[23] = second compound 0.3 µM, first compound 0.316 µM
[24] = second compound 0.3 µM, first compound 1 µM
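Note: spheroids exposed to compounds for seven days before readout.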

O=C(c1ccc(F)c(F)c1Nc1ccc(I)cc1F)N1CC(O)([C@@H]2CCCCN2)C1 + CCn1c(-c2cc(N3CCN(C)CC3)cnc2C(C)OC)c2c3cc(ccc31)-c1csc(n1)CC(NC(=O)C1CC1C)C(=O)N1CCCC(N1)C(=O)OCC(C)(C)C2
IC50 (second compound 0.000949 µM): < 3.16 nM
IC50 (second compound 0.003 µM): < 3.16 nM
IC50 (second compound 0.00949 µM): < 3.16 nM
IC50 (second compound 0.03 µM): < 3.16 nM
IC50 (second compound 0.0949 µM): < 3.16 nM
IC50 (second compound 0.3 µM): < 3.16 nM
viability, T/C (second compound 0.000949 µM, first compound 0.00316 µM): 40.6%
viability, T/C (second compound 0.000949 µM, first compound 0.01 µM): 28.1%
viability, T/C [1]: 9.77%
viability, T/C [2]: 2.04%
viability, T/C [3]: 0.28%
viability, T/C [4]: 0.8%
viability, T/C (second compound 0.003 µM, first compound 0.00316 µM): 16.4%
viability, T/C (second compound 0.003 µM, first compound 0.01 µM): 4.75%
viability, T/C [5]: 3.32%
viability, T/C [6]: 1.15%
viability, T/C [7]: 0.17%
viability, T/C [8]: 0.13%
viability, T/C (second compound 0.00949 µM, first compound 0.00316 µM): 3.22%
viability, T/C (second compound 0.00949 µM, first compound 0.01 µM): 2.06%
viability, T/C [9]: 1.32%
viability, T/C [10]: 0.24%
viability, T/C [11]: 0.08%
viability, T/C [12]: 0.13%
viability, T/C (second compound 0.03 µM, first compound 0.00316 µM): 2.61%
viability, T/C (second compound 0.03 µM, first compound 0.01 µM): 1.37%
viability, T/C [13]: 0.71%
viability, T/C [14]: 0.07%
viability, T/C [15]: 0.12%
viability, T/C [16]: 0.09%
viability, T/C (second compound 0.0949 µM, first compound 0.00316 µM): 1.11%
viability, T/C (second compound 0.0949 µM, first compound 0.01 µM): 0.96%
viability, T/C [17]: 0.28%
viability, T/C [18]: 0.12%
viability, T/C [19]: 0.15%
viability, T/C [20]: 0.18%
viability, T/C (second compound 0.3 µM, first compound 0.00316 µM): 1.01%
viability, T/C (second compound 0.3 µM, first compound 0.01 µM): 1.34%
viability, T/C [21]: 0.16%
viability, T/C [22]: 0.2%
viability, T/C [23]: 0.28%
viability, T/C [24]: 0.18%

Cc1nc(N2CCC3(CC2)COC(C)C3N)c(CO)nc1Sc1ccnc(N)c1Cl (stereo unspecified) + CCn1c(-c2cccnc2C(C)OC)c2c3cc(ccc31)N1CCOC(CC(NC(=O)C(C(C)C)N(C)C(=O)C3(F)CCN(C(=O)C#CC(C)(C)N(C)C)CC3)C(=O)N3CCCC(N3)C(=O)OCC(C)(C)C2)C1
IC50 (second compound 0.000949 µM): > 10000 nM
IC50 (second compound 0.003 µM): > 10000 nM
IC50 (second compound 0.00949 µM): > 10000 nM
IC50 (second compound 0.03 µM): > 10000 nM
IC50 (second compound 0.0949 µM): > 10000 nM
IC50 (second compound 0.3 µM): > 10000 nM
viability, T/C [1]: 91.7%
viability, T/C [2]: 84.8%
viability, T/C [3]: 78.1%
viability, T/C [4]: 83.8%
viability, T/C (second compound 0.000949 µM, first compound 3.16 µM): 79.5%
viability, T/C (second compound 0.000949 µM, first compound 10 µM): 78.4%
viability, T/C [5]: 95%
viability, T/C [6]: 97.7%
viability, T/C [7]: 95%
viability, T/C [8]: 84.7%
viability, T/C (second compound 0.003 µM, first compound 3.16 µM): 87.7%
viability, T/C (second compound 0.003 µM, first compound 10 µM): 72.6%
viability, T/C [9]: 103%
viability, T/C [10]: 74.7%
viability, T/C [11]: 74.8%
viability, T/C [12]: 75%
viability, T/C (second compound 0.00949 µM, first compound 3.16 µM): 90%
viability, T/C (second compound 0.00949 µM, first compound 10 µM): 79%
viability, T/C [13]: 86.2%
viability, T/C [14]: 87.3%
viability, T/C [15]: 91%
viability, T/C [16]: 79%
viability, T/C (second compound 0.03 µM, first compound 3.16 µM): 74.4%
viability, T/C (second compound 0.03 µM, first compound 10 µM): 69%
viability, T/C [17]: 82.3%
viability, T/C [18]: 84.8%
viability, T/C [19]: 70.1%
viability, T/C [20]: 63.3%
viability, T/C (second compound 0.0949 µM, first compound 3.16 µM): 77.9%
viability, T/C (second compound 0.0949 µM, first compound 10 µM): 71.6%
viability, T/C [21]: 77.2%
viability, T/C [22]: 72%
viability, T/C [23]: 71%
viability, T/C [24]: 70.9%
viability, T/C (second compound 0.3 µM, first compound 3.16 µM): 66.8%
viability, T/C (second compound 0.3 µM, first compound 10 µM): 61%

CC(C)n1nc(-c2ccc3oc(N)nc3c2)c2c(N)ncnc21 + C#Cc1c(F)ccc2cc(O)cc(-c3ncc4c(N5CC6CCC(C5)N6)nc(OCC56CCCN5CC(F)C6)nc4c3F)c12
IC50 (second compound 0.0316 µM): < 0.316 nM
IC50 (second compound 0.1 µM): < 0.316 nM
IC50 (second compound 0.316 µM): < 0.316 nM
IC50 (second compound 1 µM): < 0.316 nM
IC50 (second compound 3.16 µM): < 0.316 nM
IC50 (second compound 10 µM): < 0.316 nM
viability, T/C (second compound 0.0316 µM, first compound 0.000316 µM): 23.1%
viability, T/C (second compound 0.0316 µM, first compound 0.001 µM): 17.9%
viability, T/C (second compound 0.0316 µM, first compound 0.00316 µM): 13.3%
viability, T/C (second compound 0.0316 µM, first compound 0.01 µM): 16.1%
viability, T/C (second compound 0.0316 µM, first compound 0.0316 µM): 8.86%
viability, T/C (second compound 0.0316 µM, first compound 0.1 µM): 7.03%
viability, T/C (second compound 0.1 µM, first compound 0.000316 µM): 9.35%
viability, T/C (second compound 0.1 µM, first compound 0.001 µM): 10.2%
viability, T/C (second compound 0.1 µM, first compound 0.00316 µM): 8.78%
viability, T/C (second compound 0.1 µM, first compound 0.01 µM): 8.07%
viability, T/C (second compound 0.1 µM, first compound 0.0316 µM): 4.39%
viability, T/C (second compound 0.1 µM, first compound 0.1 µM): 3.64%
viability, T/C (second compound 0.316 µM, first compound 0.000316 µM): 4.61%
viability, T/C (second compound 0.316 µM, first compound 0.001 µM): 4.79%
viability, T/C (second compound 0.316 µM, first compound 0.00316 µM): 3.5%
viability, T/C (second compound 0.316 µM, first compound 0.01 µM): 3.8%
viability, T/C (second compound 0.316 µM, first compound 0.0316 µM): 2.4%
viability, T/C (second compound 0.316 µM, first compound 0.1 µM): 2.03%
viability, T/C (second compound 1 µM, first compound 0.000316 µM): 2.88%
viability, T/C (second compound 1 µM, first compound 0.001 µM): 2.78%
viability, T/C (second compound 1 µM, first compound 0.00316 µM): 2.19%
viability, T/C (second compound 1 µM, first compound 0.01 µM): 2.05%
viability, T/C (second compound 1 µM, first compound 0.0316 µM): 1.53%
viability, T/C (second compound 1 µM, first compound 0.1 µM): 1.23%
viability, T/C (second compound 3.16 µM, first compound 0.000316 µM): 1.79%
viability, T/C (second compound 3.16 µM, first compound 0.001 µM): 2.07%
viability, T/C (second compound 3.16 µM, first compound 0.00316 µM): 2.15%
viability, T/C (second compound 3.16 µM, first compound 0.01 µM): 1.84%
viability, T/C (second compound 3.16 µM, first compound 0.0316 µM): 1.11%
viability, T/C (second compound 3.16 µM, first compound 0.1 µM): 0.65%
viability, T/C (second compound 10 µM, first compound 0.000316 µM): 1.04%
viability, T/C (second compound 10 µM, first compound 0.001 µM): 0.81%
viability, T/C (second compound 10 µM, first compound 0.00316 µM): 0.8%
viability, T/C (second compound 10 µM, first compound 0.01 µM): 0.63%
viability, T/C (second compound 10 µM, first compound 0.0316 µM): 0.95%
viability, T/C (second compound 10 µM, first compound 0.1 µM): 0.15%
